{"source": "patent US20240294550A1", "about": "“8-OXA-3-AZABICYCLO[3.2.1]OCTANE COMPOUNDS OR SALT THEREOF, AND PREPARATION METHOD AND USE THEREOF” (LITTDD MEDICINES LTD, priority 2021, published 2024)", "key": {"ATR": {"target": "ATR (Homo sapiens (Human), UniProt Q13535)", "sequence (Q13535 whole entry)": "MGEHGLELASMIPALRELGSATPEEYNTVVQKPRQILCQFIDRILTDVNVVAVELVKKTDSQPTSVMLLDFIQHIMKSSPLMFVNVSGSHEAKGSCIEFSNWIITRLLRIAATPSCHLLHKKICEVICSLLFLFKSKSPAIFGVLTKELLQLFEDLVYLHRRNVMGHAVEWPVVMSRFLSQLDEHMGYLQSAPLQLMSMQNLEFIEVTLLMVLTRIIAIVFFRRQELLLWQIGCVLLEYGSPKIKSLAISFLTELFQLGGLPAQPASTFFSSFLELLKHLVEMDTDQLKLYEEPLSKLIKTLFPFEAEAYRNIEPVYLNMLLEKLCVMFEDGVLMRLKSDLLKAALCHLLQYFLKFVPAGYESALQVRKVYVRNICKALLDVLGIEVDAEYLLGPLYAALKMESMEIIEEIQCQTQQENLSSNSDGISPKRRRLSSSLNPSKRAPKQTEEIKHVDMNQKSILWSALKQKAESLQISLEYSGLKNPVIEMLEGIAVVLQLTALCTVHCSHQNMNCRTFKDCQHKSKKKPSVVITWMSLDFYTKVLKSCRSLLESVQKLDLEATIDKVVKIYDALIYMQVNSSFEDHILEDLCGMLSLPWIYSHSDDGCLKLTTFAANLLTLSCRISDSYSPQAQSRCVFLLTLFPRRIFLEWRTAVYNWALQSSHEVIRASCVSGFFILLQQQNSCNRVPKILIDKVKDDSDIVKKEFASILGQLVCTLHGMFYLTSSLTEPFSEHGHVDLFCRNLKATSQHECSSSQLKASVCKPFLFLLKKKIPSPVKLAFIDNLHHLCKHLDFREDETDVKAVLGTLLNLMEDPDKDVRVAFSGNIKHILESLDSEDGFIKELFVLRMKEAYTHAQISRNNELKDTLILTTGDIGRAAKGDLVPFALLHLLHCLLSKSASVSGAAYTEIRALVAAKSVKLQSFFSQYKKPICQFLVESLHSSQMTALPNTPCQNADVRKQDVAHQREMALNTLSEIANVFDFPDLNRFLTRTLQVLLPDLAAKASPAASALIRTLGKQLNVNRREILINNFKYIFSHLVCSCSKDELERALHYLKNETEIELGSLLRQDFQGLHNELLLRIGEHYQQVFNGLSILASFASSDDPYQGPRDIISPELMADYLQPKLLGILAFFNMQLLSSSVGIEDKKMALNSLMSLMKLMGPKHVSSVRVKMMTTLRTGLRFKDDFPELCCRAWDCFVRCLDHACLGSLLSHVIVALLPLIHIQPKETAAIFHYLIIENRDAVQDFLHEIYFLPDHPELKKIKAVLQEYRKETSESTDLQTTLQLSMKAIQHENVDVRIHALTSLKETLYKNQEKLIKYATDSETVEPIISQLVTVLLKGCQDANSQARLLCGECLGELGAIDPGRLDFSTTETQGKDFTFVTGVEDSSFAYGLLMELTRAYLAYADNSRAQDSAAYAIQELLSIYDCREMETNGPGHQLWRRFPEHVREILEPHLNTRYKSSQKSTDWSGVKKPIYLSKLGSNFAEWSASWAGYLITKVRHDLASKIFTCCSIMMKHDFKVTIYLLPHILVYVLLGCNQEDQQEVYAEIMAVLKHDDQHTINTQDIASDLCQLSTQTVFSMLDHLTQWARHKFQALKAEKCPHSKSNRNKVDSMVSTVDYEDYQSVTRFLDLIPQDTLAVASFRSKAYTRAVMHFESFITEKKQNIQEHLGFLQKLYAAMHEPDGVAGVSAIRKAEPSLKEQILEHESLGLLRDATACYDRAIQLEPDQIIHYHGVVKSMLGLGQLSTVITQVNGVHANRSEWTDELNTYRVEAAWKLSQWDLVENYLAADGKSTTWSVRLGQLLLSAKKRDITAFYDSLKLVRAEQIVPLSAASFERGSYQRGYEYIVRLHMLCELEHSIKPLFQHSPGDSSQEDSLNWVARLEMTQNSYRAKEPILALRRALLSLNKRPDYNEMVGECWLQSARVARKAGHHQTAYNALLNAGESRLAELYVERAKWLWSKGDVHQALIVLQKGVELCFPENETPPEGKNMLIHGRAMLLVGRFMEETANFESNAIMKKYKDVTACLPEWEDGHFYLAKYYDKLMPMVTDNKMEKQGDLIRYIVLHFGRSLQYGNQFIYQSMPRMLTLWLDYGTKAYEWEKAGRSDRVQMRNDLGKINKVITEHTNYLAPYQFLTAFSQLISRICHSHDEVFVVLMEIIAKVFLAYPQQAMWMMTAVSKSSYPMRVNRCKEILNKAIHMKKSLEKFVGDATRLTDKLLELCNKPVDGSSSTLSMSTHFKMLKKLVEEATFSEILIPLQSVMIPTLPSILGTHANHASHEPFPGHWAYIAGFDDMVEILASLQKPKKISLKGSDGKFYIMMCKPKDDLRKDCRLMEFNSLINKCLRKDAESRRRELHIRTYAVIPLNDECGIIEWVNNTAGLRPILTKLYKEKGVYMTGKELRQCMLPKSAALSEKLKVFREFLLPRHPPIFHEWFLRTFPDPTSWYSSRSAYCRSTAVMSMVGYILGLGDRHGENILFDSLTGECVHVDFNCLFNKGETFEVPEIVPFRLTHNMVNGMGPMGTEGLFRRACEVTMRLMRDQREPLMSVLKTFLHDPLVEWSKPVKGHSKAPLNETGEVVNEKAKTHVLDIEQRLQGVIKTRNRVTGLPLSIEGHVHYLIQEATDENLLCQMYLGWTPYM", "sequence (Q8WXE1 whole entry partner)": "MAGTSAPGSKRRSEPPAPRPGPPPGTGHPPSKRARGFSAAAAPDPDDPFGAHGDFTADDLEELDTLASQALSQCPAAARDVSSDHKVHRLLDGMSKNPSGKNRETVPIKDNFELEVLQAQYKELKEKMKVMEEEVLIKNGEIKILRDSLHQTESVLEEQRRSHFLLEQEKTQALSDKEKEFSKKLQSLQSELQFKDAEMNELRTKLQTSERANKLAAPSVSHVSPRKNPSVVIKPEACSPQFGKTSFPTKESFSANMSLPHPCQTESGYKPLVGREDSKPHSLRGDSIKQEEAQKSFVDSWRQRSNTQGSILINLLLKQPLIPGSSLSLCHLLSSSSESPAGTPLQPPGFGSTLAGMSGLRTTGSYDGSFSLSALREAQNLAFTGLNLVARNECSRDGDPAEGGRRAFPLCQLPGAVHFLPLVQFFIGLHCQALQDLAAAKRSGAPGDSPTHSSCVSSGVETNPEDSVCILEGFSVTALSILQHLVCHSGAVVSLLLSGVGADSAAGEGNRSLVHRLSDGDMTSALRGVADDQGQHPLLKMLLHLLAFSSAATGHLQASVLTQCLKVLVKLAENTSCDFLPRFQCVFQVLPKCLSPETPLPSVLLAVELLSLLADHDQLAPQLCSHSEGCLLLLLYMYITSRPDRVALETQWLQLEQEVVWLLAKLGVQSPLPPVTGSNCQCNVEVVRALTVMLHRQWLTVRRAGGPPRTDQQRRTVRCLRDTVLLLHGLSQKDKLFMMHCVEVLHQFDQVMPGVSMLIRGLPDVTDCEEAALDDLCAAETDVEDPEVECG", "assay": "ATR kinase inhibition assay (HTRF)", "type": "biochemical", "conditions": "p53 substrate, ATP 150 nM", "experimental": "This experiment adopted Homogeneous time-resolved fluorescence technology (HTRF®) of Cisbio Company for assay.\nExperiment method: buffers were prepared as follows:\nPreparation of solutions of the test compounds: The example compounds shown in the table below were prepared into solutions using DMSO as solvent, the stock solution typically being 10 mM. The maximum starting concentration in this experiment was 3 μM, DMSO 3-fold serial dilutions for concentrations, the serially diluted solution was added to each well of the corresponding 384-well plate (geriner bio-one, Cat #784075) to give final concentrations of 3000, 1000, 333, 111, 37, 12.3, 4.12, 1.37, 0.457, 0.152 nM, respectively, and the corresponding amount of DMSO was added to the additional wells to be used as negative or positive control wells, respectively.\nThe enzyme and substrate were separately dissolved and diluted in two tubes with the buffer prepared above at the following concentrations:\n5 μL of the ATR protein solution from tube A was added to the compound-containing wells and the negative control wells in the assay plates using an electric multichannel pipettor, and the same volume of the prepared buffer (medium only, no enzyme) was added to the positive control wells. The plates were centrifuged for one minute at 1000 rpm, and then placed in an incubator at 25° C. for 15 minutes. 5 μL of the substrate mix solution from tube B was added to the positive control well, negative control well and the compound-containing well of the assay plates in the same manner, centrifuged and incubated at 25° C. for 90 minutes.\nDuring the reaction, after ATR phosphorylated the substrate p53, two antibodies were added. Among them, anti-phospho-p53-Eu, as an energy donor, can specifically bind to the phosphorylation site of p53, while anti-GST-d2, as an energy receptor, can specifically bind to the GST-tagged p53. Upon excitation by a laser with certain wavelength (the excitation wavelength in this experiment is 340 nm), the energy donor can emit emission light of 615 nm, and when the energy donor and the energy receptor are close enough in space (that is, two antibodies are connected to p53 at the same time), energy transfer can occur between the energy donor and the energy receptor, so that the energy receptor can emit emission light of 665 nm. The two emission lights were detected by a plate reader, and the ratio of the signals at 665 nm and 615 nm was calculated. The IC50 of the samples tested can be obtained by plotting and calculation.\n10 μL per well of the detection solution was added to the positive control, negative control and compound wells of the assay plate using an electric multichannel pipette, centrifuged and incubated overnight at 4° C., and read with the plate reader Envision 2104.\nCompound inhibition rate was calculated using interpolation. The mean values of the positive and negative controls were calculated respectively, and the following formula was used to calculate the inhibition rates of the compounds:\nInhibition rate Minimum response+(Compound concentration ^Curve slope)*(Maximum response−Minimum response)/(Compound concentration^Curve slope+Half inhibition concentration ^Curve slope)\nThe IC50 value of each compound to enzyme activity was obtained."}, "[1]": {"assay": "Equilibrium solubility in FaSSIF", "type": "physicochemical", "conditions": "thermodynamic from solid; FaSSIF pH 6.5, shaken 24 hours", "experimental": "The compound powder was weighed into a volumetric flask, 450 μL of pH 6.5 FaSSIF solution was added to obtain a supersaturated suspension, the samples were vortexed for at least 2 minutes, and the volumetric flasks were shaken on a vibrating screen at 800 rpm for 24 hours, and then centrifuged at 4000 rpm for 20 minutes. The compressed filtrate was added to a HPLC system, and the concentrations were calculated by a standard curve method."}, "[2]": {"assay": "Metabolic stability in mouse liver microsomes", "type": "in vitro ADME, CD-1 mice", "experimental": "Drug-like Properties: Concepts, Structure Design and Methods: from ADME to Toxicity Optimization. […] Screen. […] After incubation for appropriate time (such as 5, 10, 20, 30 and 60 minutes), samples were collected, and an appropriate termination solution (glacial acetonitrile containing 200 ng/mL tolbutamide and 200 ng/mL labetalol (i.e. acetonitrile at 4° C.)) was added to stop the reaction. Sample treatment (n=1): each appropriate sample was added, vortexed and centrifuged at high speed. The supernatants were collected, and detected the substrate by HPLC-MS/MS. The peak area at the 0 min was set as 100%. The peak areas at other time points were converted to percentages of the remaining amount. The natural logarithms of the percentage of remaining amount at each time point was plotted against the incubation time, and the slope (−k) was calculated. Then, Clint (μL/min/mg) and half-life (T½, min) of the compounds were calculated following the equation: Inherent clearance rate (Clint)=(k*Volume of incubation solution)/Mass of liver microsomes."}, "LOVO cells": {"tested_on": "LOVO cells", "assay": "Cell proliferation assay (CellTiter-Glo)", "type": "cell-based", "conditions": "Homo sapiens, 96 hours", "experimental": "The cell proliferation inhibition effect of the compound of the invention was tested using CellTiter-Glo™ cell viability assay kit. This kit uses luciferase as the detector. During the luminescence process, the luciferase requires the participation of ATP. CellTiter-Glo™ reagent was added to the cell culture medium, and the luminescence value was measured. The light signal is proportional to the amount of ATP present in the system, and ATP positively correlates with the number of viable cells present, thus the cell proliferation activity is measured.\nCell culture and seeding: LOVO cells in logarithmic growth phase (human colon carcinoma cells) (ATCC CCL-229) were harvested and counted using a platelet counter. Trypan blue exclusion method was used to detect the cell viability to ensure that the cell viability was above 90%. 90 μL of cell suspension (RPMI1640+10% fetal bovine serum) was added to a 96-well transparent flat-bottom black-wall plate (Thermo, 165305) respectively, and the cell concentration was adjusted to 3000/well/90 μl. Cells in the 96-well plate were incubated overnight at 37° C., 5% CO2 with 95% humidity (Thermo, Model 3100 Series).\nFirstly, DMSO was used as the solvent to prepare 10 mM mother solution of the test compounds, and then PBS was used to dilute 100 times to prepare a solution of 10 times of final concentration, the highest concentration was 100 μM. 10 μL solution of the test compounds was added to each well of the 96 well plate inoculated with cells, namely the solution was further diluted 10 times to reach the final concentration of 10 μM. Starting from 10 μM, the final concentration of the test compound was 3-fold serially diluted, with 9 concentrations in total with 3 triplicates for each concentration. The 96 well plates with the test compounds and cells were incubated at 37° C., 5% CO2 and 95% humidity for 96 hours, and then CellTiter Glo analysis was performed.\nCellTiter-Glo Reagents (CellTiter Glo R Luminescent Cell Viability Assay, Promega, G7572) were melted and the 96-well plates were equilibrated to room temperature for 30 minutes. An equal volume of CellTiter-Glo solution was added to each well, and the cells were lysed by shaking on the fixed orbit shaker for 5 minutes. The assay plates were left at room temperature for 20 minutes to stabilize the luminescence signal, and the luminescence signals were read using the SpectraMax multi-labeled microplate detector (MD, M3).\nData were analyzed using GraphPad Prism 7.0 software, fitted with non-linear S-curve regression to derive the dose-response curves, and IC50 values were calculated therefrom.\nCell survival rate (%)=(LumDrug to be tested−LumCulture medium control)/(LumCell control−LumCulture medium control)×100%"}}}
{"smiles": "C[C@@H]1COCCN1c1cc(N2CC3CCC(C2)O3)nc2c(-c3cc[nH]n3)cnn12", "note": "[Example 1, 3-(7-((R)-3-methylmorpholino)-3-(1H-pyrazol-3-yl)pyrazolo[1,5-a]pyrimidin-5-yl)-8-oxa-3-azabicyclo[3.2.1]octane]", "values": [{"measurement": "IC50", "setting": "ATR", "value": 0.0174, "unit": "µM"}, {"measurement": "solubility at 24 h", "setting": "[1]", "value": 1140, "unit": "µg/mL"}, {"measurement": "half-life at 1 μM", "setting": "[2]; CD-1, 1 μM compound", "value": 58.3, "unit": "min"}, {"measurement": "microsomal CLint at 1 μM", "setting": "[2]; CD-1, read-out: CLint(mic)", "value": 23.8, "unit": "µL/min/mg"}, {"measurement": "Remain % (T = 60 min)", "setting": "[2]; T = 60 min", "value": 44.4, "unit": "%"}, {"measurement": "IC50", "setting": "LOVO cells", "value": 0.304, "unit": "µM"}]}
